Data as given in the supplement of paper PMC10307832.

Experiments:
Assay in all cases: relative viability (nuclei count vs DMSO), 5 days (fraction); higher = more cells survive
[1] = compound: CCCS(=O)(=O)Nc1ccc(F)c(C(=O)c2c[nH]c3ncc(-c4ccc(Cl)cc4)cc23)c1F [Vemurafenib] + CC(=O)c1c(C)c2cnc(Nc3ccc(N4CCNCC4)cn3)nc2n(C2CCCC2)c1=O [Palbociclib] (partner 0.5 µM)
Outline: (§1)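 Dosing by pin tool came one day after lung cancer cell lines were seeded in 1536-well plates, using either one drug or a fixed anchor-drug dose plus five library-drug doses (not always all listed) in √10 steps. After 5 days, nuclei were counted on 4× images. Relative viability is treated-well nuclei count divided by vehicle-well nuclei count, and values are medians of duplicate plates.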

[2] = compound: CCCS(=O)(=O)Nc1ccc(F)c(C(=O)c2c[nH]c3ncc(-c4ccc(Cl)cc4)cc23)c1F [Vemurafenib] + CC1(C)CCC(c2ccc(Cl)cc2)=C(CN2CCN(c3ccc(C(=O)NS(=O)(=O)c4ccc(N[C@H](CCN5CCOCC5)CSc5ccccc5)c(S(=O)(=O)C(F)(F)F)c4)cc3)CC2)C1 [Navitoclax] (partner 0.5 µM)
Outline: as §1

[3] = compound: COc1cccc2cc(-c3nc([C@H]4CC[C@H](C(=O)O)CC4)n4ncnc(N)c34)[nH]c12 [OSI-027] + CC(C)C[C@H](NC(=O)[C@H](Cc1ccccc1)NC(=O)c1cnccn1)B(O)O [Bortezomib] (partner 0.002 µM)
Outline: as §1

[4] = compound: COc1cccc2cc(-c3nc([C@H]4CC[C@H](C(=O)O)CC4)n4ncnc(N)c34)[nH]c12 [OSI-027] + Nc1ncn([C@H]2C[C@H](O)[C@@H](CO)O2)c(=O)n1 [Decitabine] (partner 2 µM)
Outline: as §1

Cell Line | relative viability ([1]; first compound 0.03162 µM) | relative viability ([1]; first compound 0.3162 µM) | relative viability ([1]; first compound 1 µM) | relative viability ([2]; first compound 0.03162 µM) | relative viability ([2]; first compound 0.3162 µM) | relative viability ([2]; first compound 1 µM) | relative viability ([3]; first compound 0.01 µM) | relative viability ([3]; first compound 0.03162 µM) | relative viability ([3]; first compound 0.1 µM) | relative viability ([3]; first compound 0.3162 µM) | relative viability ([3]; first compound 1 µM) | relative viability ([4]; first compound 0.01 µM) | relative viability ([4]; first compound 0.03162 µM) | relative viability ([4]; first compound 0.1 µM) | relative viability ([4]; first compound 0.3162 µM) | relative viability ([4]; first compound 1 µM) | relative viability ([1]; first compound 0.1 µM) | relative viability ([2]; first compound 0.1 µM)
HCC-827 | 0.413 | 0.509 | 0.511 | 0.967 | 1 | 1.02 | 0.973 | 1.07 | 1.06 | 1.12 | 1.05 | 0.304 | 0.291 | 0.3 | 0.329 | 0.277 |  | 
HOP-62 | 0.436 | 0.371 | 0.396 | 0.939 | 0.966 | 1.05 | 0.679 | 0.726 | 0.377 | 0.65 | 0.609 | 0.216 | 0.231 | 0.252 | 0.257 | 0.214 | 0.437 | 1.12
IA-LM |  |  |  | 0.643 | 0.794 | 0.665 | 0.736 | 0.765 | 0.438 | 0.21 | 0.113 |  |  |  |  |  |  | 0.806
LC-2-ad | 0.449 | 0.481 | 0.442 | 0.457 | 0.535 | 0.46 | 1.03 | 0.984 | 1.05 | 1.09 | 0.662 | 0.827 | 0.842 | 0.779 | 0.735 | 0.578 | 0.466 | 0.422
LCLC-97TM1 |  | 0.22 | 0.207 | 0.411 | 0.533 | 0.486 | 0.271 | 0.554 | 0.369 | 0.154 | 0.193 | 0.256 | 0.23 | 0.195 | 0.174 | 0.22 | 0.22 | 0.371
LCLC-103H | 0.426 | 0.501 | 0.467 |  |  |  | 1.24 | 1.16 | 1.13 | 0.928 | 1 | 0.748 | 0.732 | 0.707 | 0.598 | 0.783 | 0.448 | 
LK-2 | 0.621 | 0.602 | 0.311 | 0.736 | 0.753 | 0.529 |  |  |  |  |  | 0.207 | 0.251 | 0.231 | 0.234 | 0.142 | 0.599 | 0.963
LOU-NH91 | 0.515 | 0.536 | 0.551 | 0.698 |  | 0.759 | 0.452 | 0.486 | 0.473 | 0.546 | 0.455 | 0.804 | 0.825 | 0.73 | 0.718 | 0.613 | 0.497 | 0.369
LU99A | 0.386 |  | 0.373 | 0.714 | 0.869 | 0.796 | 1.11 | 0.967 | 0.981 | 0.604 | 0.252 | 0.773 | 0.966 | 0.675 | 0.485 | 0.216 | 0.401 | 0.752
NCI-H358 | 0.113 | 0.175 | 0.132 |  |  |  |  |  |  |  |  | 0.191 | 0.182 | 0.199 | 0.232 | 0.178 | 0.139 | 
NCI-H522 | 0.822 | 0.857 | 1.26 |  |  |  |  |  |  |  |  | 0.705 | 0.724 | 0.626 | 0.629 | 0.582 | 0.743 | 
NCI-H596 |  |  |  | 0.93 | 1.04 | 0.842 | 0.869 | 1.02 | 0.884 | 0.897 | 0.892 | 1.1 | 1.08 | 1.1 | 1.03 | 0.82 |  | 0.728
NCI-H650 | 0.359 | 0.241 | 0.287 |  |  |  | 0.738 | 1.05 | 0.431 | 0.549 | 0.406 | 0.303 | 0.317 | 0.288 | 0.3 | 0.276 | 0.288 | 
NCI-H661 | 0.406 | 0.454 | 0.403 |  |  |  | 0.811 | 0.734 | 0.802 | 0.666 | 0.395 | 0.521 | 0.522 | 0.491 | 0.417 | 0.327 | 0.357 | 
NCI-H1299 |  |  |  | 1.03 | 0.976 | 1.03 | 1.09 | 1.03 | 1.06 | 1.08 | 1.1 |  |  |  |  |  |  | 1.03
NCI-H1395 | 0.553 | 0.523 | 0.611 | 1.37 |  | 1.18 |  |  |  |  |  | 0.696 | 0.742 | 0.684 | 0.645 | 0.532 | 0.613 | 0.999
NCI-H1563 |  |  |  |  |  |  | 0.822 | 0.872 | 0.781 | 0.741 | 0.722 |  |  |  |  |  |  | 
NCI-H1648 |  | 0.341 | 0.294 |  |  |  |  |  |  |  |  | 0.477 | 0.51 |  | 0.445 | 0.45 | 0.277 | 
NCI-H1703 |  |  |  | 1.19 | 0.863 | 0.933 | 0.361 | 0.302 | 0.238 | 0.233 | 0.187 |  |  |  |  |  |  | 1.24
NCI-H1793 | 0.287 | 0.303 | 0.344 | 0.389 | 0.361 | 0.454 |  |  |  |  |  | 0.457 | 0.493 | 0.436 | 0.329 | 0.259 | 0.226 | 
NCI-H1944 | 0.332 | 0.313 | 0.385 | 1.06 | 1.05 | 1.04 |  |  |  |  |  | 0.427 | 0.46 | 0.405 | 0.443 | 0.303 |  | 0.846
NCI-H2170 | 0.403 | 0.396 | 0.344 | 0.532 | 0.639 | 0.484 |  |  |  |  |  | 0.459 | 0.491 | 0.463 | 0.421 | 0.31 |  | 0.251
NCI-H2228 | 0.698 | 0.88 | 0.414 | 0.687 | 1.04 | 0.841 | 0.977 | 1.01 | 0.999 |  | 0.65 |  |  |  |  |  | 0.772 | 0.752
NCI-H2342 | 0.512 | 0.541 | 0.548 |  |  |  |  |  |  |  |  | 0.793 | 0.687 | 0.68 | 0.662 | 0.603 | 0.461 | 
SK-MES-1 | 0.314 | 0.314 | 0.318 | 1.25 | 1.27 | 1.13 |  |  |  |  |  | 0.362 | 0.36 | 0.304 | 0.307 | 0.223 |  | 1.3
SW 900 | 0.563 | 0.549 | 0.488 |  |  |  |  |  |  |  |  | 0.438 | 0.402 | 0.42 | 0.48 | 0.384 | 0.43 | 
